From patent US7867993B2, “Preparation containing oxidized flavonoid derivatives” (Merck Patent GmbH, priority 2005, dated 2011)
In brackets after ≈: the same amount, converted by molar mass. Where two headings read alike, the source gives them in different places.

Columns and labels:
[1] = compared with the other investigated hydroxyflavones, over the entire pH range; cited from earlier work
[2] = Solubility in water and in ethanol; type: physicochemical
Text: The solubilities of quercetin in water and in ethanol are, by contrast, only 0.04 g/l and 15.8 g/l respectively.

Row | Compound | antioxidative action [1] | solubility ([2]; organic solvent or mixture, at 25° C. in ethanol, read-out: solubility in ethanol) [mg/mL] | solubility ([2]; 25 °C, organic solvent or mixture) [mg/mL] | solubility ([2]; 25 °C, water) [mg/mL]
1 | O=c1c(O)c(-c2ccc(O)c(O)c2)oc2cc(O)cc(O)c12 [quercetin, 3,3′,4′,5,7-pentahydroxyflavone] | highest activity | 15.8 (≈ 52.3 mM) | – | –
2 | CCCCOC1(c2ccc(O)c(O)c2)Oc2cc(O)cc(O)c2C(=O)C1(O)O (stereo not shown) [2-butoxy-2-(3,4-dihydroxyphenyl)-3,3,5,7-tetrahydroxychroman-4-one] | – | – | 855 (≈ 2180 mM) | 2.9 (≈ 7.39 mM)
